Data: patent publication US10597388B2, “Pyridazinone herbicides” (FMC CORPORATION, priority 2014, dated 2020)
Read-outs that look alike come from different tables or passages of the source.

Legend:
Assay in all cases: Test A greenhouse herbicide test, pre- and postemergence
Assay type in all cases: in vivo
[1] = system: ryegrass, Italian (Italian ryegrass, Lolium multiflorum); settings: Lolium multiflorum, 240 h; for pest or weed control at 125 g/ha: 125 g ai/ha; for pest or weed control at 500 g/ha: 500 g ai/ha, 0 to 100 scale
Summary of the method: (§1)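 Seeds in loam–sand blend received a preemergence directed soil spray; plants at 2–10 cm, one- to two-leaf stage, received postemergence sprays. Compounds in a non-phytotoxic solvent with surfactant. After about 10 d in a greenhouse, injury rated visually versus untreated controls on a 0–100 scale (100 = complete control).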

[2] = system: ragweed (common ragweed, Ambrosia elatior); settings: Ambrosia artemisiifolia, 240 h; for pest or weed control at 125 g/ha: 125 g ai/ha; for pest or weed control at 500 g/ha: 500 g ai/ha, 0 to 100 scale
Summary of the method: as §1

[3] = system: foxtail, giant (giant foxtail, Setaria faberii); settings: Setaria faberi, 240 h; for pest or weed control at 125 g/ha: 125 g ai/ha; for pest or weed control at 500 g/ha: 500 g ai/ha, 0 to 100 scale
Summary of the method: as §1

corn (Zea mays) = settings: Zea mays, 240 h; for Corn plant response rating (crop injury, 0 = no effect, 100 = complete kill) at 125 g/ha / plant injury at 500 g/ha: post-emergence, Postemergence; for Corn plant response rating (crop injury, 0 = no effect, 100 = complete kill) at 125 g/ha: visual rating after approx. 10 d, 0 to 100 scale (0 no effect, 100 complete control); for plant injury at 500 g/ha: 0 is no effect, 100 is complete control
Summary of the method: as §1

[4] = system: pigweed (Amaranthus retroflexus); settings: Amaranthus retroflexus, 240 h; for pest or weed control at 125 g/ha: 125 g ai/ha; for pest or weed control at 500 g/ha: 500 g ai/ha, 0 to 100 scale
Summary of the method: as §1

[5] = system: wheat (Triticum aestivum); settings: Triticum aestivum, 240 h; for plant injury at 125 g/ha: 125 g ai/ha; for plant injury at 500 g/ha: 500 g ai/ha, 0 to 100 scale
Summary of the method: as §1

kochia (Kochia scoparia) = settings: Bassia scoparia, 240 h; for pest or weed control at 125 g/ha: 125 g ai/ha; for pest or weed control at 500 g/ha: 500 g ai/ha, 0 to 100 scale
Summary of the method: as §1

[6] = post-emergence, Postemergence, visual rating after approx. 10 d, 0 to 100 scale (0 no effect, 100 complete control), read-out: Plant response rating, Ryegrass, Italian
[7] = post-emergence, Postemergence, 0 is no effect, 100 is complete control, read-out: Ryegrass, Italian plant response rating
[8] = pre-emergence, Preemergence, 0 to 100 scale where 0 is no effect and 100 is complete control, read-out: Ryegrass, Italian plant response rating
[9] = pre-emergence, Preemergence, 0 no effect, 100 complete control, read-out: Plant response rating, Ryegrass, Italian
[10] = post-emergence, Postemergence, visual rating after approx. 10 d, 0 to 100 scale (0 no effect, 100 complete control), read-out: Plant response rating, Ragweed
[11] = post-emergence, Postemergence, 0 is no effect, 100 is complete control, read-out: Ragweed plant response rating
[12] = pre-emergence, Preemergence, 0 to 100 scale where 0 is no effect and 100 is complete control, read-out: Ragweed plant response rating
[13] = pre-emergence, Preemergence, 0 no effect, 100 complete control, read-out: Plant response rating, Ragweed
[14] = post-emergence, Postemergence, visual rating after approx. 10 d, 0 to 100 scale (0 no effect, 100 complete control), read-out: Plant response rating, Foxtail, Giant
[15] = post-emergence, Postemergence, 0 is no effect, 100 is complete control, read-out: Foxtail, Giant plant response rating
[16] = pre-emergence, Preemergence, 0 to 100 scale where 0 is no effect and 100 is complete control, read-out: Foxtail, Giant plant response rating
[17] = pre-emergence, Preemergence, 0 no effect, 100 complete control, read-out: Plant response rating, Foxtail, Giant
[18] = 500 g ai/ha, 0 to 100 scale, read-out: Corn plant response rating
[19] = post-emergence, Postemergence, visual rating after approx. 10 d, 0 to 100 scale (0 no effect, 100 complete control), read-out: Plant response rating, Pigweed
[20] = post-emergence, Postemergence, 0 is no effect, 100 is complete control, read-out: Pigweed plant response rating
[21] = pre-emergence, Preemergence, 0 to 100 scale where 0 is no effect and 100 is complete control, read-out: Pigweed plant response rating
[22] = pre-emergence, Preemergence, 0 no effect, 100 complete control, read-out: Plant response rating, Pigweed
[23] = post-emergence, Postemergence, visual rating after approx. 10 d, 0 to 100 scale (0 no effect, 100 complete control), read-out: Plant response rating, Wheat
[24] = post-emergence, Postemergence, 0 is no effect, 100 is complete control, read-out: Wheat plant response rating
[25] = post-emergence, Postemergence, visual rating after approx. 10 d, 0 to 100 scale (0 no effect, 100 complete control), read-out: Plant response rating, Kochia
[26] = post-emergence, Postemergence, 0 is no effect, 100 is complete control, read-out: Kochia plant response rating
[27] = pre-emergence, Preemergence, 0 to 100 scale where 0 is no effect and 100 is complete control, read-out: Kochia plant response rating
[28] = pre-emergence, Preemergence, 0 no effect, 100 complete control, read-out: Plant response rating, Kochia

Row | Compound | pest or weed control at 125 g/ha [1, 6] | pest or weed control at 500 g/ha [1, 7] | pest or weed control at 125 g/ha [1, 8] | pest or weed control at 500 g/ha [1, 9] | pest or weed control at 125 g/ha [2, 10] | pest or weed control at 500 g/ha [2, 11] | pest or weed control at 125 g/ha [2, 12] | pest or weed control at 500 g/ha [2, 13] | pest or weed control at 125 g/ha [3, 14] | pest or weed control at 500 g/ha [3, 15] | pest or weed control at 125 g/ha [3, 16] | pest or weed control at 500 g/ha [3, 17] | Corn plant response rating (crop injury, 0 = no effect, 100 = complete kill) at 125 g/ha (corn (Zea mays); 125 g ai/ha) | plant injury at 500 g/ha (corn (Zea mays); [18]) | pest or weed control at 125 g/ha [4, 19] | pest or weed control at 500 g/ha [4, 20] | pest or weed control at 125 g/ha [4, 21] | pest or weed control at 500 g/ha [4, 22] | plant injury at 125 g/ha [5, 23] | plant injury at 500 g/ha [5, 24] | also measured
1 | Cc1ccc2oc(C)c(-c3c(OC(=O)C(C)(C)C)c(C)nn(C)c3=O)c2c1 [Compound 17, 5-(2,5-dimethyl-3-benzofuranyl)-1,6-dihydro-1,3-dimethyl-6-oxo-4-pyridazinyl 2,2-dimethylpropanoate] | 50% | 60% | 10% | 40% | 0% | 0% | 0% | 10% | 0% | 0% | 0% | 0% | 0% | 0% | 0% | 0% | 0% | 0% | 0% | 0% | pest or weed control at 125 g/ha (kochia (Kochia scoparia); [25]): 0%; pest or weed control at 500 g/ha (kochia (Kochia scoparia); [26]): 0%; pest or weed control at 125 g/ha (kochia (Kochia scoparia); [27]): 0%; pest or weed control at 500 g/ha (kochia (Kochia scoparia); [28]): 0%
2 | Cc1nn(C)c(=O)c(-c2c(C)oc3cccc(C)c23)c1O [Compound 8, 4-(2,4-dimethyl-3-benzofuranyl)-5-hydroxy-2,6-dimethyl-3(2H)-pyridazinone] | – | – | – | – | – | – | – | – | 0% | 30% | 40% | 60% | 0% | 0% | 70% | 80% | 70% | 100% | 0% | 0% | plant injury at 125 g/ha (corn (Zea mays); pre-emergence, Preemergence, 125 g ai/ha, 0 to 100 scale where 0 is no effect and 100 is complete control, read-out: Corn plant response rating): 0%; Corn plant response rating (crop injury, 0 = no effect, 100 = complete kill) at 500 g/ha (corn (Zea mays); pre-emergence, Preemergence, 500 g ai/ha, 0 to 100 scale, 0 no effect, 100 complete control): 0%; plant injury at 125 g/ha ([5]; pre-emergence, Preemergence, 0 to 100 scale where 0 is no effect and 100 is complete control, read-out: Wheat plant response rating): 0%; plant injury at 500 g/ha ([5]; pre-emergence, Preemergence, 0 no effect, 100 complete control, read-out: Plant response rating, Wheat): 0%
3 | Cc1cc(C)c2oc(C)c(-c3c(OC(=O)C(C)(C)C)c(C)nn(C)c3=O)c2c1 [Compound 18, 1,6-dihydro-1,3-dimethyl-6-oxo-5-(2,5,7-trimethyl-3-benzofuranyl)-4-pyridazinyl 2,2-dimethylpropanoate] | 10% | 50% | 0% | 20% | 0% | 0% | 0% | 0% | 0% | 20% | 0% | 0% | 0% | 20% | 0% | 0% | 0% | 0% | 0% | 0% | pest or weed control at 125 g/ha (kochia (Kochia scoparia); [25]): 0%; pest or weed control at 500 g/ha (kochia (Kochia scoparia); [26]): 0%; pest or weed control at 125 g/ha (kochia (Kochia scoparia); [27]): 0%; pest or weed control at 500 g/ha (kochia (Kochia scoparia); [28]): 0%
